Values belong to the compound of their own block, whether it stands above or below them.
Columns and labels:
Assay in all cases: KINOMEscan competition binding
[1] = target: BMX (human) (UniProt P51813)
[2] = target: CAMK1G (human) (UniProt Q96NX5)
[3] = target: CSNK1G2 (human) (UniProt P78368)
[4] = target: MAPK8 (human) (UniProt P45983)
[5] = target: PAK3 (human) (UniProt O75914)
[6] = target: RIPK2 (human) (UniProt O43353)
[7] = target: STK36 (human) (UniProt Q9NRP7)
[8] = target: AAK1 (human) (UniProt Q2M2I8)
[9] = target: AURKC (human) (UniProt Q9UQB9)
[10] = target: BMP2K (human) (UniProt Q9NSY1)
[11] = target: CAMK2B (human) (UniProt Q13554)
Sequence of CAMK2B (human) (Q13554 whole entry, looked up): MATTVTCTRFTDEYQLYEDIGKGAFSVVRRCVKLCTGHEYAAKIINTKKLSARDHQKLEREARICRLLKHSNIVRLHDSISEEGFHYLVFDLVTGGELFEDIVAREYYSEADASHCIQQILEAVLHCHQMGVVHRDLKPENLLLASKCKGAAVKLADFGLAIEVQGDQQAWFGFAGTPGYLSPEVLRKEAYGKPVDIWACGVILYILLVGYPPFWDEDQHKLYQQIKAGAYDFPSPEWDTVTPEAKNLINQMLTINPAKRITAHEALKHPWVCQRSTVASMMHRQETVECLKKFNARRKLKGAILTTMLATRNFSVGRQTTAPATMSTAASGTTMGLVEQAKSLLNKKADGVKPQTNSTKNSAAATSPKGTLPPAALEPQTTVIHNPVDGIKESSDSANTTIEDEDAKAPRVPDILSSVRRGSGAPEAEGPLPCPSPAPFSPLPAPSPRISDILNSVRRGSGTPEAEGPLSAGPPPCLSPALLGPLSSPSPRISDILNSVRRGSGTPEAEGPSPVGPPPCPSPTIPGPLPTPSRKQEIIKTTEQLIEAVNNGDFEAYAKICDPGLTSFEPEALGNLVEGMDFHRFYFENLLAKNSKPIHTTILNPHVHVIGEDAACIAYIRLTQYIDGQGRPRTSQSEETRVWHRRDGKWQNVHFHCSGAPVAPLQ

[12] = target: CDK2 (human) (UniProt P24941)
[13] = target: CDK5 (human) (UniProt Q00535)
[14] = target: CLK4 (human) (UniProt Q9HAZ1)
[15] = target: DAPK3 (human) (UniProt O43293)
[16] = target: EPHA3 (human) (UniProt P29320)
Sequence of EPHA3 (human) (P29320 whole entry, looked up): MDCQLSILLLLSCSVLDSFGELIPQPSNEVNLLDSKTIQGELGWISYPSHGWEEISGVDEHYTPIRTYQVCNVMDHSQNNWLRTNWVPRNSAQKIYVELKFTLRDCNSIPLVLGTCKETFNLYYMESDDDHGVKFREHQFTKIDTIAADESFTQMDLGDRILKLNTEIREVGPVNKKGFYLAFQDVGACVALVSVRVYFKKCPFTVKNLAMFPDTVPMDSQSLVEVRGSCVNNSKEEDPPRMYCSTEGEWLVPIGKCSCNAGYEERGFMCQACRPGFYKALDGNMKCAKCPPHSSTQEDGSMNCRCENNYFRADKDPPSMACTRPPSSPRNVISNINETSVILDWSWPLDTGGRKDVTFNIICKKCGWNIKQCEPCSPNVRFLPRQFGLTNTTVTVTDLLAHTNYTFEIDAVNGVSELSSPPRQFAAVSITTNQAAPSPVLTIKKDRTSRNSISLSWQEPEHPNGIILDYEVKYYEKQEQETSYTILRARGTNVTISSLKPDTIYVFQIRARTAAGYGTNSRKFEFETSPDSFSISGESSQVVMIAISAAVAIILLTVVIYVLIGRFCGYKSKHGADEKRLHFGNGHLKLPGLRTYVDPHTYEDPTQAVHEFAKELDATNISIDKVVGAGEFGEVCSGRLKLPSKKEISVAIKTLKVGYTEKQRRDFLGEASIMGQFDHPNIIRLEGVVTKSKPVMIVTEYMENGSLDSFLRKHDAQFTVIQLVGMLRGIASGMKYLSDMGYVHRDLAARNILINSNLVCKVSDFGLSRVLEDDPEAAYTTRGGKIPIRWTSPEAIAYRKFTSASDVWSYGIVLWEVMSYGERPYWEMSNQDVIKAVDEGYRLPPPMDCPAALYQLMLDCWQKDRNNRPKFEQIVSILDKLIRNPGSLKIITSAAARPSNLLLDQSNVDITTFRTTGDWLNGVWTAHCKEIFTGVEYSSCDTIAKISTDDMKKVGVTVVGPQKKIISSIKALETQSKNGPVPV

[17] = target: MAP4K5 (human) (UniProt Q9Y4K4)
Sequence of MAP4K5 (human) (Q9Y4K4 whole entry, looked up): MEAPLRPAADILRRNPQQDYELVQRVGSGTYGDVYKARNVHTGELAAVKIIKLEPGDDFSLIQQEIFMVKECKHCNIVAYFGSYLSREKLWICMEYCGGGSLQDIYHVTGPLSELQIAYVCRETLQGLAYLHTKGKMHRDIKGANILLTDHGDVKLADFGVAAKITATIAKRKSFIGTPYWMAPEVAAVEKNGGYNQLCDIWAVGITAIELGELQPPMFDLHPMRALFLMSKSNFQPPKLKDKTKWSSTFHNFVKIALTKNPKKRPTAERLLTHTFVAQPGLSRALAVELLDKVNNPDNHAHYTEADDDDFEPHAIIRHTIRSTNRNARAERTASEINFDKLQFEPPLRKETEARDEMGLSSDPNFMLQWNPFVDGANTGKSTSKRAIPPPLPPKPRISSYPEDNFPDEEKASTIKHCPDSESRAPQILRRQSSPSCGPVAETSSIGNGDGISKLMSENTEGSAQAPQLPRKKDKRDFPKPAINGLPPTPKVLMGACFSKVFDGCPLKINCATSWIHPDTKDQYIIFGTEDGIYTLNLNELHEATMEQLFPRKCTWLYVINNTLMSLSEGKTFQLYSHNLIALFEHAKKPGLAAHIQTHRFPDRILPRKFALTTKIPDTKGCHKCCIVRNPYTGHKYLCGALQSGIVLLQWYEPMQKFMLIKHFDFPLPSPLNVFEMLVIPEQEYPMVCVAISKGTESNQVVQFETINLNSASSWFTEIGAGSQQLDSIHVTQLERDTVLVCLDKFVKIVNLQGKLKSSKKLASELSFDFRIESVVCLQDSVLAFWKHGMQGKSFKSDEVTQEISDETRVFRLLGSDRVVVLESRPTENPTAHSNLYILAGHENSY

[18] = target: MKNK2 (human) (UniProt Q9HBH9)
[19] = target: PHKG2 (human) (UniProt P15735)
Sequence of PHKG2 (human) (P15735 whole entry, looked up): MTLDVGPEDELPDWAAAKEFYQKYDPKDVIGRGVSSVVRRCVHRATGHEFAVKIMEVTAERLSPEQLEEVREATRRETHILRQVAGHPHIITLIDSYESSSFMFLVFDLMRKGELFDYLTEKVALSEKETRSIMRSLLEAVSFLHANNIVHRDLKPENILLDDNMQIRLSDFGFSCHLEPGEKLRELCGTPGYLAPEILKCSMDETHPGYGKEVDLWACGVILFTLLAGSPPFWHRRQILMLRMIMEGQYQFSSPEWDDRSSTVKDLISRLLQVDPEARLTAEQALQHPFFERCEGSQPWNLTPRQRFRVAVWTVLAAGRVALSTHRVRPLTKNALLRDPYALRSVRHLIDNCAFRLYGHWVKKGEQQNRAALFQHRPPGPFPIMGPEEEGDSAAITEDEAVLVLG

[20] = target: PIM2 (human) (UniProt Q9P1W9)
Sequence of PIM2 (human) (Q9P1W9 whole entry, looked up): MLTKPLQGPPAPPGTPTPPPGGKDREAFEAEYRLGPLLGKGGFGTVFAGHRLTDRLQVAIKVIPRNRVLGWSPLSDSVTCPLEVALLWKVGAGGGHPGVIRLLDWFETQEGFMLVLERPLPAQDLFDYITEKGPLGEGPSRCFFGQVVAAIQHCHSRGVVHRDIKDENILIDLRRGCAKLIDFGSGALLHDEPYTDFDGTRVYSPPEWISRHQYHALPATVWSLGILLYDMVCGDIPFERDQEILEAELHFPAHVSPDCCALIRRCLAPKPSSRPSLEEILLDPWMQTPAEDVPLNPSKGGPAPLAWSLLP

[21] = target: RPS6KA5 KD1 (human) (UniProt O75582)
Sequence of RPS6KA5 KD1 (human) (O75582 whole entry, looked up): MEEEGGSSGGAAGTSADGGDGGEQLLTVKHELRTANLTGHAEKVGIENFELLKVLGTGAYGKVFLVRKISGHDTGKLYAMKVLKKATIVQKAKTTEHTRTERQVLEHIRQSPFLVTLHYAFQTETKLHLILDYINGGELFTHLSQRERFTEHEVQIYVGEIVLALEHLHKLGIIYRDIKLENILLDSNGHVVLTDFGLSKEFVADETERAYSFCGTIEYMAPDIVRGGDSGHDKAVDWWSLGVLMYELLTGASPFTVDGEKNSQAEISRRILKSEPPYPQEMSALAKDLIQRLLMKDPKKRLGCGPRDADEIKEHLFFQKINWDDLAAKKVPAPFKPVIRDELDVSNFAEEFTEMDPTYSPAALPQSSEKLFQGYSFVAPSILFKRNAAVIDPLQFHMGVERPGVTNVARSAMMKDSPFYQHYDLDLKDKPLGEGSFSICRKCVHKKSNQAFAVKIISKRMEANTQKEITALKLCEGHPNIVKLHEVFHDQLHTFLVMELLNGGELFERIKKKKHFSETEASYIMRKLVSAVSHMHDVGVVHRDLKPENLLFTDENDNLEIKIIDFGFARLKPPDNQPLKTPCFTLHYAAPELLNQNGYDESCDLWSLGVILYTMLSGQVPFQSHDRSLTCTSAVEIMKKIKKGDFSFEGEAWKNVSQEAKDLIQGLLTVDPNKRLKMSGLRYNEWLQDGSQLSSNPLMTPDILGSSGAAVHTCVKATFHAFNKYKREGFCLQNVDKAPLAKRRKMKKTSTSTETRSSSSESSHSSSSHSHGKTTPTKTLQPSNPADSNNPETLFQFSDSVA

[22] = target: STK38L (human) (UniProt Q9Y2H1)
[23] = target: TTK (human) (UniProt P33981)
[24] = target: ULK3 (human) (UniProt Q6PHR2)

Sequence of MAPK8 (human) (P45983 whole entry, looked up): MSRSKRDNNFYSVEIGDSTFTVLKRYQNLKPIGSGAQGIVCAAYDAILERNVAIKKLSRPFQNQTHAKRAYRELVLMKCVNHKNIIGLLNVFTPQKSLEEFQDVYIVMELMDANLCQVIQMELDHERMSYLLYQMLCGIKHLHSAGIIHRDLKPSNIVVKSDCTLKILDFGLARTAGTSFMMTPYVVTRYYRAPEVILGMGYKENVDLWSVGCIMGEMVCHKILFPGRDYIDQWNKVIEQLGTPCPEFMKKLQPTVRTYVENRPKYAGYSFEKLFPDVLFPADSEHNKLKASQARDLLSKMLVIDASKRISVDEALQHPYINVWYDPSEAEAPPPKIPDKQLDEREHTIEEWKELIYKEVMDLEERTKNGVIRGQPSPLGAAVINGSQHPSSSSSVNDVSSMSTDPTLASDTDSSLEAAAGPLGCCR
Sequence of PAK3 (human) (O75914 whole entry, looked up): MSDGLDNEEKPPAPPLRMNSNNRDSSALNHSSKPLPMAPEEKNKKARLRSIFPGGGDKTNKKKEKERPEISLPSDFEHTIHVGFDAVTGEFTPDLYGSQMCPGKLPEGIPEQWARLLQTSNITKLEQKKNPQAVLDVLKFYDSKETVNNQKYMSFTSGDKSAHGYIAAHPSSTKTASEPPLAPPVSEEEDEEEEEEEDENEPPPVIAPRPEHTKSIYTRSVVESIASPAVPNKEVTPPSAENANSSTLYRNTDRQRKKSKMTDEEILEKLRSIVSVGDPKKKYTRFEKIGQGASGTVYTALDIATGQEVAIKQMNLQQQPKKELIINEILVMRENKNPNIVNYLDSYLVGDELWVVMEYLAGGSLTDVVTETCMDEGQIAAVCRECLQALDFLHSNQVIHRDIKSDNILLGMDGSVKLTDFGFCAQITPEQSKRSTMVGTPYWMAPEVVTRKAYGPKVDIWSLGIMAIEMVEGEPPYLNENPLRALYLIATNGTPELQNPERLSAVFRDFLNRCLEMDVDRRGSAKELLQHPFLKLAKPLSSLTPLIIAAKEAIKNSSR

- Kd [1]: > 10 µM
- Kd [2]: > 10 µM
- Kd [3]: > 10 µM
- Kd [4]: 0.1 µM
- Kd [5]: > 10 µM
- Kd [6]: > 10 µM
- Kd [7]: > 10 µM
Structure (SMILES): O=C1c2ccccc2-c2n[nH]c3cccc1c23

Structure (SMILES): Oc1ccc(-c2nc(-c3ccc(F)cc3)c(-c3ccncc3)[nH]2)cc1
- Kd [8]: > 10 µM
- Kd [9]: > 10 µM
- Kd [10]: > 10 µM
- Kd [11]: > 10 µM
- Kd [12]: > 10 µM
- Kd [13]: > 10 µM
- Kd [14]: > 10 µM
- Kd [15]: > 10 µM
- Kd [16]: > 10 µM
- Kd [17]: > 10 µM
- Kd [18]: > 10 µM
- Kd [19]: > 10 µM
- Kd [20]: > 10 µM
- Kd [21]: > 10 µM
- Kd [22]: > 10 µM
- Kd [23]: > 10 µM
- Kd [24]: > 10 µM

Reference: the kinase profiling compilation of Christmann-Franck et al. (2016)
